Laboratory results reported in the OligoGym collection.
Where “and” joins values, the source holds several entries; their conditions need not be identical. Equal entries are not always repeated. After the bases stand the sugars from the 5' end (letter, count) and the backbone: PS all phosphorothioate, else s phosphorothioate and o phosphodiester by linkage. Methylation of C is not given here. k = constrained ethyl (cEt); d = 2'-deoxy (DNA)

These sequences were tested against MALAT1. Settings: ASO, A431, 0.005 µM.

Sequence	target mRNA inhibition
TGAGAACTGCTCTAGT (sugars k3 d10 k3, PS)	35%
ATTTATAGACGGAGAA (sugars k3 d10 k3, PS)	9%
CCTGAAGTCAAGACAA (sugars k3 d10 k3, PS)	0%
AACTGCTTGCAGTCCT (sugars k3 d10 k3, PS)	5%
CACACCCAGAAGTGTT (sugars k3 d10 k3, PS)	13%
CAGACCTGAAGTCAAG (sugars k3 d10 k3, PS)	14%
CCCCGGAACTTTTAAA (sugars k3 d10 k3, PS)	23%
GGCCAAGTCTGTTATG (sugars k3 d10 k3, PS)	-1%
TATAAGGTCAATAGTG (sugars k3 d10 k3, PS)	38%
TTGACAAGCAATTAAC (sugars k3 d10 k3, PS)	7%
AAGTAGTTCTTCGGTT (sugars k3 d10 k3, PS)	10%
TAAATTGGTTCTGGTC (sugars k3 d10 k3, PS)	49%
CGAAGACACAGAGACC (sugars k3 d10 k3, PS)	10%
GTCAATAGTACTATAG (sugars k3 d10 k3, PS)	58% and 42%
GCATATGCAGATAATG (sugars k3 d10 k3, PS)	36%
GCCCCAGTCCTTTACA (sugars k3 d10 k3, PS)	3%
GTCAGGGACACACCCA (sugars k3 d10 k3, PS)	-11%
ATAAGGACAGCTAAGA (sugars k3 d10 k3, PS)	8%
GCAATACTGCAGATGC (sugars k3 d10 k3, PS)	-19%
TGGCGATGTGGCAGAG (sugars k3 d10 k3, PS)	35%
CATCAAGGATGTATAT (sugars k3 d10 k3, PS)	-4%

Sequence	target mRNA inhibition
CCCCCAACTGCTTGCA (sugars k3 d10 k3, PS)	29%
TACATGTTCCCACCCA (sugars k3 d10 k3, PS)	39%
TATAGCTTGACAAGCA (sugars k3 d10 k3, PS)	19%
ATTCAACTGGAAGCTC (sugars k3 d10 k3, PS)	17%
GATTTGAGCTGCAAAC (sugars k3 d10 k3, PS)	0%
CCGCCGCCTTTGTGAG (sugars k3 d10 k3, PS)	25%
GATATTTAAGAACTCC (sugars k3 d10 k3, PS)	38%
TAATGGTTTTCTACAC (sugars k3 d10 k3, PS)	40%
ACAGGAACAAGTCCTA (sugars k3 d10 k3, PS)	10%
TGCGGTTTCCTCAAGC (sugars k3 d10 k3, PS)	26%
CTAACTTCTGCACCAC (sugars k3 d10 k3, PS)	38%
GAATTCGATCACCTTC (sugars k3 d10 k3, PS)	-1%
CCCTTTACACCTCAGT (sugars k3 d10 k3, PS)	25%
CTACTGGCTGCATCGA (sugars k3 d10 k3, PS)	54%
GCATTGGAGATCAGCT (sugars k3 d10 k3, PS)	11%
CTAAACAATTACCTAA (sugars k3 d10 k3, PS)	3%
TCAGACAAGATTCATG (sugars k3 d10 k3, PS)	31%
TTACGAAAGTCCTTCA (sugars k3 d10 k3, PS)	28%
GACAAGGCAGTTATAT (sugars k3 d10 k3, PS)	1%
AGCAGTAACATCTGAT (sugars k3 d10 k3, PS)	41%
ATGGACATTGCCTCTT (sugars k3 d10 k3, PS)	37%

Sequence	target mRNA inhibition
ACTGAAAACTCCCCCC (sugars k3 d10 k3, PS)	-3%
CCAGCAAAATGTACTC (sugars k3 d10 k3, PS)	46%
GATAGTTCAGGGCTTT (sugars k3 d10 k3, PS)	10%
CCTGCGACTTGCTCCC (sugars k3 d10 k3, PS)	20%
TTTTTGTTCGAGAAAT (sugars k3 d10 k3, PS)	-7%
CAGTCCTTTTAGTAGC (sugars k3 d10 k3, PS)	57%
TGCCAATATTTGCCCC (sugars k3 d10 k3, PS)	20%
AGACAAGATTCATGAG (sugars k3 d10 k3, PS)	50%
ATAATCTCCCACCTGT (sugars k3 d10 k3, PS)	17%
CTTTAAGCTGTTTAAG (sugars k3 d10 k3, PS)	-4%
CCGTAACAGGCCACTG (sugars k3 d10 k3, PS)	30%
CAGGCGAGCTGAGGCT (sugars k3 d10 k3, PS)	7%
GCTAAGATGCTAGCTT (sugars k3 d10 k3, PS)	10%
GCCCACCCTCTAAGAG (sugars k3 d10 k3, PS)	18%
TGCCATGGTTGATATT (sugars k3 d10 k3, PS)	37%
AACATTGGCACACAGC (sugars k3 d10 k3, PS)	54%
AAATGGTAGATTCCGT (sugars k3 d10 k3, PS)	60% and 62% and 50%
CCCAATGGAGGTATGA (sugars k3 d10 k3, PS)	23%
AAGAGCCAAGCACTCA (sugars k3 d10 k3, PS)	12%
GAGTCATTTGCCTTTA (sugars k3 d10 k3, PS)	73% and 48%
TTGCTTACACACAACT (sugars k3 d10 k3, PS)	18%

Sequence	target mRNA inhibition
CTATTGGTATTAATTC (sugars k3 d10 k3, PS)	7%
GTCTCCGAAGACACAG (sugars k3 d10 k3, PS)	-5%
TTATTCCAGGATTAAT (sugars k3 d10 k3, PS)	-5%
TGGAAGCTCCTTCTAT (sugars k3 d10 k3, PS)	-19%
TCCTTATTTAGAGGGC (sugars k3 d10 k3, PS)	29%
CTTCTCTAACCCAGTT (sugars k3 d10 k3, PS)	15%
TCTGAACCGGAGCAGG (sugars k3 d10 k3, PS)	19%
TAGTTCTTCGGTTAAA (sugars k3 d10 k3, PS)	6%
ATTCCTTATTTAGAGG (sugars k3 d10 k3, PS)	-11%
AGTCAAGCTCCTGACA (sugars k3 d10 k3, PS)	13%
AAGGATGTATATAGTT (sugars k3 d10 k3, PS)	21%
GCTGAAATCTATTCAA (sugars k3 d10 k3, PS)	-159%
AATTGTAGTTAATGTC (sugars k3 d10 k3, PS)	36%
GGCAAACGAAACATTG (sugars k3 d10 k3, PS)	35%
AACTCGCATCACCGGA (sugars k3 d10 k3, PS)	21%
GTTGATATTTAAGAAC (sugars k3 d10 k3, PS)	-15%
CCCCCCAAGATTGCCC (sugars k3 d10 k3, PS)	14%
CAAGATTCATGAGTAT (sugars k3 d10 k3, PS)	34%
